# Literature values as cited in US4123523A, “Analgesic and sedative polypeptides” (Imperial Chemical Industries Limited, priority 1976, dated 1978).
# Tested on: cat
# Conditions: injected directly into the third ventricle of the cat
substance,measurement,value
"β-endorphin: residues 61-91 of the naturally-occuring lipolytic polypeptide hormone lipotropin (YGGFMTSEKSQTPLVTLFKNAIIKNAYKKGE; Beta-endorphin; UniProt P01189 237-267, looked up)",analgesic properties,possesses analgesic properties
